This note sets out measurements from patent US7629344B2, “3-(imidazolyl)-pyrazolo[3,4-b]pyridines” (ChemoCentryx, Inc., priority 2007, dated 2009).

For the first series, the system named is Female New Zealand rabbits. Briefly: Rabbit model of destructive joint inflammation (rabbit LPS study). The series is classed as in vivo. Particulars: intra-articular LPS (10 ng) in both knees; dosed orally 2 hours before and 4 hours after LPS; knees lavaged sixteen hours after LPS. The method, then: A rabbit LPS study was conducted essentially as described in Podolin, et al. J. Immunol. 169(11):6435-6444 (2002). Female New Zealand rabbits (approximately 2 kilograms) were treated intra-articularly in both knees with LPS (10 ng). The compound of interest, for example 1.016, (formulated in 1% methocel) or vehicle (1% methocel) was dosed orally at a 5 ml/kg dose volume at two times (2 hours before the intra-articular LPS injection and 4 hours after the intra-articular LPS injection). Sixteen hours after the LPS injection, knees were lavaged and cells counts were performed. Beneficial effects of treatment were determined by reduction in the number of inflammatory cells recruited to the inflamed synovial fluid of the knee joints.
Take `COc1cc(N2CCN(C(=O)Cn3nc(-c4ncc[nH]4)c4cccnc43)CC2)ccc1Cl` [1.016, 1-[4-(4-Chloro-3-methoxy-phenyl)-piperazin-1-yl]-2-[3-(1H-imidazol-2-yl)-pyrazolo[3,4-b]pyridin-1-yl]-ethanone]: the “number of inflammatory cells recruited to the inflamed synovial fluid of the knee joints” value is “significant reduction”.

Test system in another series: not given
Experiment: not given
Conditions: not given
As usually defined, the melting point is the temperature of the solid-liquid transition. Consider `COc1cc(N2CCN(C(=O)Cn3nc(-c4ncc[nH]4)c4cccnc43)CC2)ccc1Cl` [1.016, 1-[4-(4-Chloro-3-methoxy-phenyl)-piperazin-1-yl]-2-[3-(1H-imidazol-2-yl)-pyrazolo[3,4-b]pyridin-1-yl]-ethanone], for which the melting point was in the range of 149 to 152 °C.

Test system in another series: not listed separately
Briefly: Pharmacokinetic tests conducted in animals. The series is classed as in vivo. Conditions: over related compounds (U.S. Publication No. 2007/0010524A1).
For the compound `COc1cc(N2CCN(C(=O)Cn3nc(-c4ncc[nH]4)c4cccnc43)CC2)ccc1Cl` [1.016, 1-[4-(4-Chloro-3-methoxy-phenyl)-piperazin-1-yl]-2-[3-(1H-imidazol-2-yl)-pyrazolo[3,4-b]pyridin-1-yl]-ethanone], the AUC entry was “increased”, the Cmax result was “increased” and the oral bioavailability result is “improved”.

Another series deals with T1, CCR1 (Homo sapiens, UniProt P32246).
T1 construct: host or cells: THP-1 cells or freshly isolated monocytes
T1 sequence (P32246 1-355): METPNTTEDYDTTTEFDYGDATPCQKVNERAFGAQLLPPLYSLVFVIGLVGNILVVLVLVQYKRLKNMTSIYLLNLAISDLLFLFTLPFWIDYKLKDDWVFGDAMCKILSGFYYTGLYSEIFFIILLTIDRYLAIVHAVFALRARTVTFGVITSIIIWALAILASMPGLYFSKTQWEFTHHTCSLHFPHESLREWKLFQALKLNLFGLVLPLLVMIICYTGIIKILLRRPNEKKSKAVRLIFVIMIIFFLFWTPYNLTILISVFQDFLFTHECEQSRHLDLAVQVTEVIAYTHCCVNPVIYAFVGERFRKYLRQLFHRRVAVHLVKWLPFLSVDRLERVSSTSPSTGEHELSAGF
Briefly: Chemotaxis assay (inhibition of CCR1 mediated migration). The series is classed as cell-based. Conditions: THP-1 or monocyte cells; CCR1 chemokine ligand (MIP-1α, CCL15/Leukotactin); 1-2 hours at 37° C. Here is the method: THP-1 cells were obtained from ATCC (TIB-202) and cultured as a suspension in RPMI-1640 medium supplemented with 2 mM L-glutamine, 1.5 g/L sodium bicarbonate, 4.5 g/L glucose, 10 mM HEPES, 1 mM sodium pyruvate, 0.05% 2-mercaptoethanol and 10% FBS. Cells were grown under 5% CO2/95% air, 100% humidity at 37° C. and subcultured twice weekly at 1:5 (cells were cultured at a density range of 2×10^5 to 2×10^6 cells/mL) and harvested at 1×10^6 cells/mL. THP-1 cells express CCR1 and can be used in CCR1 binding and functional assays. • 2. Chemotaxis Assays
Chemotaxis assays were performed using 5 μm pore polycarbonate, polyvinylpyrrolidone-coated filters in 96-well chemotaxis chambers (Neuroprobe; Gaithersburg, Md.) using chemotaxis buffer (Hank's balanced salt solution (HBSS) and 1% FBS). CCR1 chemokine ligands (i.e., MIP-1α, CCL15/Leukotactin; R&D Systems; Minneapolis, Minn.) are use to evaluate compound mediated inhibition of CCR1 mediated migration. Other chemokines (i.e., SDF-1α; R&D Systems; Minneapolis, Minn.) are used as specificity controls. The lower chamber was loaded with 29 μl of chemokine (i.e., 0.1 nM CCL15/Leukotactin) and varying amounts of compound; the top chamber contained 100,000 THP-1 or monocyte cells in 20 μl. The chambers were incubated 1-2 hours at 37° C., and the number of cells in the lower chamber quantified either by direct cell counts in five high powered fields per well or by the CyQuant assay (Molecular Probes), a fluorescent dye method that measures nucleic acid content and microscopic observation. • B. Identification of Inhibitors of CCR1
One of the primary functions of chemokines is their ability to mediate the migration of chemokine receptor-expressing cells, such as white blood cells. To confirm that a compound of interest inhibited not only CCR1 specific binding and signaling (at least as determined by calcium mobilization assays), but also CCR1 mediated migration, a chemotaxis assay was employed. THP-1 myelomonocytic leukemia cells, which resemble monocytes, as wells as freshly isolated monocytes, were used as targets for chemoattraction by CCR1 chemokine ligands (i.e., MIP-1α, CCL15/leukotactin). Cells were placed in the top compartment of a microwell migration chamber, while MIP-1α (or other potent CCR1 chemokine ligand) and increasing concentrations of a compound of interest was loaded in the lower chamber. […] In this assay, the amount of compound was varied; while cell number and chemokine agonist concentrations were held constant. After the chemotaxis chambers were incubated 1-2 hours at 37° C., the responding cells in the lower chamber were quantified by labeling with the CyQuant assay (Molecular Probes), a fluorescent dye method that measures nucleic acid content, and by measuring with a Spectrafluor Plus (Tecan). The computer program Prism from GraphPad, Inc. (San Diego, Calif.) was used to calculate IC50 values. IC50 values are those compound concentrations required to inhibit the number of cells responding to a CCR1 agonist by 50%. • 1. In Vivo Efficacy • a) Rabbit Model of Destructive Joint Inflammation
One may read the IC50 as the midpoint of a concentration-inhibition curve. A high value points to weaker potency. For `COc1cc(N2CCN(C(=O)Cn3nc(-c4ncc[nH]4)c4cccnc43)C[C@@H]2C)ccc1Cl` [1.008, 1-[(S)-4-(4-Chloro-3-methoxyphenyl)-3-methylpiperazin-1-yl]-2-[3-(1H-imidazol-2-yl)-pyrazolo[3,4-b]pyridin-1-yl]ethanone], the IC50 was no more than 100 nM.
Consider `COc1cc(N2CCN(C(=O)Cn3nc(-c4ncc[nH]4)c4cccnc43)[C@@H](C)C2)c(F)cc1Cl` [1.006, 1-[(S)-4-(4-Chloro-2-fluoro-5-methoxyphenyl)-2-methylpiperazin-1-yl]-2-[3-(1H-imidazol-2-yl)pyrazolo[3,4-b]pyridin-1-yl]ethanone], for which the IC50 is no more than 100 nM.
Take `COc1cc(N2CCN(C(=O)Cn3nc(-c4ncc[nH]4)c4cccnc43)C[C@H]2C)ccc1Cl` [1.007, 1-[(R)-4-(4-Chloro-3-methoxyphenyl)-3-methylpiperazin-1-yl]-2-[3-(1H-imidazol-2-yl)-pyrazolo[3,4-b]pyridin-1-yl]ethanone]: the IC50 is no more than 100 nM.
The compound `COc1cc(N2CCN(C(=O)Cn3nc(-c4ncc[nH]4)c4cccnc43)[C@H](C)C2)ccc1Cl` [1.009, 1-[(R)-4-(4-Chloro-3-methoxyphenyl)-2-methylpiperazin-1-yl]-2-[3-(1H-imidazol-2-yl)-pyrazolo[3,4-b]pyridin-1-yl]ethanone] had an IC50 of no more than 100 nM.
The same measure, in the same setting: in the case of `CCOc1cc(N2CCN(C(=O)Cn3nc(-c4ncc[nH]4)c4cccnc43)CC2)c(F)cc1Cl` [1.001, 1-[4-(4-Chloro-5-ethoxy-2-fluorophenyl)piperazin-1-yl]-2-[3-(1H-imidazol-2-yl)-pyrazolo[3,4-b]pyridin-1-yl]ethanone] it was no more than 100 nM.
Compound `CCOc1cc(N2CCN(C(=O)Cn3nc(-c4ncc[nH]4)c4cccnc43)[C@@H](C)C2)ccc1Cl` [1.010, 2-(3-(1H-imidazol-2-yl)-1H-pyrazolo[3,4-b]pyridin-1-yl)-1-((S)-4-(4-chloro-3-ethoxyphenyl)-2-methylpiperazin-1-yl)ethanone] showed an IC50 of no more than 100 nM.
Take `O=C(Cn1nc(-c2ncc[nH]2)c2cccnc21)N1CCN(c2ccc(Cl)c(C(F)(F)F)c2)CC1` [1.014, 1-[4-(4-Chloro-3-trifluoromethyl-phenyl)-piperazin-1-yl]-2-[3-(1H-imidazol-2-yl)-pyrazolo[3,4-b]pyridin-1-yl]-ethanone]: the IC50 was greater than 100 nM.
In the case of `O=C(Cn1nc(-c2ncc[nH]2)c2cccnc21)N1CCN(c2ccc(Cl)c(OCCF)c2)CC1` [1.011, 2-(3-(1H-imidazol-2-yl)-1H-pyrazolo[3,4-b]pyridin-1-yl)-1-(4-(3-(2-fluoroethoxy)-4-chlorophenyl)piperazin-1-yl)ethanone], the IC50 was no more than 100 nM.
In turn, `Cc1cc(N2CCN(C(=O)Cn3nc(-c4ncc[nH]4)c4cccnc43)CC2)ccc1Cl` [1.013, 1-[4-(4-Chloro-3-methyl-phenyl)-piperazin-1-yl]-2-[3-(1H-imidazol-2-yl)-pyrazolo[3,4-b]pyridin-1-yl]-ethanone] returned an IC50 of no more than 100 nM.
The same measure, in the same setting: then `O=C(Cn1nc(-c2ncc[nH]2)c2cccnc21)N1CCN(c2ccc(Cl)c(OC(F)(F)F)c2)CC1` [1.015, 1-[4-(4-Chloro-3-trifluoromethoxy-phenyl)-piperazin-1-yl]-2-[3-(1H-imidazol-2-yl)-pyrazolo[3,4-b]pyridin-1-yl]-ethanone], with greater than 100 nM; and `O=C(Cn1nc(-c2ncc[nH]2)c2cccnc21)N1CCN(c2cc(OCCF)c(Cl)cc2F)CC1` [1.002, 1-{4-[4-Chloro-2-fluoro-5-(2-fluoroethoxy)-phenyl]piperazin-1-yl}-2-[3-(1H-imidazol-2-yl)-pyrazolo[3,4-b]pyridin-1-yl]ethanone], with no more than 100 nM; and `COc1cc(N2CCN(C(=O)Cn3nc(-c4ncc[nH]4)c4cccnc43)CC2)ccc1Cl` [1.016, 1-[4-(4-Chloro-3-methoxy-phenyl)-piperazin-1-yl]-2-[3-(1H-imidazol-2-yl)-pyrazolo[3,4-b]pyridin-1-yl]-ethanone], with no more than 100 nM.
Still for that read-out and setting: in the case of `COc1cc(N2CCN(C(=O)Cn3nc(-c4nccn4C)c4cccnc43)CC2)ccc1Cl` [1.017, 1-[4-(4-Chloro-3-methoxy-phenyl)-piperazin-1-yl]-2-[3-(1-methyl-1H-imidazol-2-yl)-pyrazolo[3,4-b]pyridin-1-yl]-ethanone] it was no more than 100 nM; in that of `COc1cc(N2CCN(C(=O)Cn3nc(-c4ncc[nH]4)c4cccnc43)CC2)c(F)cc1Cl` [1.004, 1-[4-(4-Chloro-2-fluoro-5-methoxyphenyl)piperazin-1-yl]-2-[3-(1H-imidazol-2-yl)-pyrazolo[3,4-b]pyridin-1-yl]ethanone], no more than 100 nM.
`COc1cc(N2CCN(C(=O)Cn3nc(-c4ncc[nH]4)c4cccnc43)[C@@H](C)C2)ccc1Cl` [1.005, 1-[(S)-4-(4-Chloro-3-methoxyphenyl)-2-methylpiperazin-1-yl]-2-[3-(1H-imidazol-2-yl)-pyrazolo[3,4-b]pyridin-1-yl]ethanone]: the IC50 is no more than 100 nM.
Compound `C[C@H]1CN(c2ccc(Cl)c(OCCF)c2)CCN1C(=O)Cn1nc(-c2ncc[nH]2)c2cccnc21` [1.012, 2-(3-(1H-imidazol-2-yl)-1H-pyrazolo[3,4-b]pyridin-1-yl)-1-((S)-4-(3-(2-fluoroethoxy)-4-chlorophenyl)-2-methylpiperazin-1-yl)ethanone] returned an IC50 of no more than 100 nM.
`CCOc1cc(N2CCN(C(=O)Cn3nc(-c4ncc[nH]4)c4cccnc43)CC2)ccc1Cl` [1.003, 1-[4-(4-Chloro-3-ethoxyphenyl)piperazin-1-yl]-2-[3-(1H-imidazol-2-yl)pyrazolo[3,4-b]pyridin-1-yl]ethanone] displayed a 50% inhibitory concentration (IC50) of no more than 100 nM.
